The values below come from US9556215B2, “Synthetic pentasaccharides having short half-life and high activity” (CARBOMIMETICS, priority 2011, dated 2017).

Data set [1] is described as follows: Pharmacokinetic study after intravenous administration (half-life of elimination). It counts as in vivo, female Wistar Han rats. The conditions noted are these: plasma concentration by anti-factor Xa bioassay. On the procedure: Quantification of Compounds in Plasma
Rat plasmatic concentration of compounds (μg compound/mL plasma) was determined using a bioassay based on their anti-factor Xa activity (Stachrom HP kit, Diagnostica Stago as described above). This assay was carried out on a STA Compact (Diagnostica Stago). A specific calibration curve was preformed with each compound to be quantified in rat plasma.
Pharmacokinetic Study after Intravenous Administration (Half-Life of Elimination, T½)
The pharmacokinetics of the compounds of the present invention were investigated in female Wistar Han rats after intravenous administration.
Blood samples were taken at various time points and blood (9 volumes) was mixed with sodium citrate (1 volume) and cooled immediately on ice. The sample was subjected to a centrifugation at 3000×g for 10 minutes at low temperature (the plasma is typically stable for 24 h at temperature below 8° C.) and stored frozen at −20° C. Concentration of compound (per mL of plasma) was determined by their anti-factor Xa activity using factor Xa activity as described above.
For each compound, the half-life of elimination was calculated from the concentration versus time curve thus obtained.

For data set [2], the target named is T1, factor Xa in the presence of AT (Homo sapiens, UniProt P01008).
T1 construct: purchased Diagnostica Stago Stachrom HP kit
Briefly: Determination of anti-factor Xa activity (IC50), Stachrom HP kit. The conditions noted are these: factor Xa inhibition in the presence of AT. It counts as biochemical. The protocol:
In the description of exemplified compounds, “IC50” represents the anti-factor Xa activity.
Determination of Anti-Factor Xa Activity of Compounds (IC50)
The compounds were compared as to their ability of inhibiting factor Xa in the presence of AT under standard conditions. For each compound a curve was plotted representing the inhibition % vs. concentration. The concentration inhibiting 50% of the factor Xa activity (IC50) was determined. A commercially available system was used for this purpose: compoundStachrom HP kit (Diagnostica Stago). This assay was carried out on a STA Compact (Diagnostica Stago).

For data set [3] the following is noted: cited from earlier work.

T1 sequence (P01008 33-464): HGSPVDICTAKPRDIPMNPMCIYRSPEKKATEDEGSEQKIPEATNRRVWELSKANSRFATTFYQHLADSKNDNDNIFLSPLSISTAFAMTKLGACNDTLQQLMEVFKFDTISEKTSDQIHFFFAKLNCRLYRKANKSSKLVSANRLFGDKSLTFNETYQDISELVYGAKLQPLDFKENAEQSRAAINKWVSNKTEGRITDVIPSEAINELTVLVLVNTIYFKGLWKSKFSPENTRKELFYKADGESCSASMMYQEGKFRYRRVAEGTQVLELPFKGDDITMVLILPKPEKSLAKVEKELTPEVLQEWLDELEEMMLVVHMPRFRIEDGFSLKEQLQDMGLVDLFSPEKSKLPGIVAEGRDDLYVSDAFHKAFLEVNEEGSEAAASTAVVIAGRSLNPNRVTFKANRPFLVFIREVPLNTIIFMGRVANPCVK

Consider `CCCCCCOC1C(COS(=O)(=O)O)OC(OC2C(OC)C(OC)C(OC3C(COS(=O)(=O)O)OC(OC4C(OC)C5OCC4(C(=O)O)OC5OC4C(COS(=O)(=O)O)OC(OC)C(OS(=O)(=O)O)C4OC)C(OS(=O)(=O)O)C3OS(=O)(=O)O)OC2(CC)C(=O)O)C(N)C1OCCCCCC` (centres unmarked) [Compound PA02], for which, in data set [1], the “T1/2 (Rat), half-life of elimination” value was determined as 4.8 ± 0.5 h. Besides, the IC50 in data set [2] was 108 nM.

Regarding `CCC1(C(=O)O)OC(OC2C(COS(=O)(=O)O)OC(OC3C(OC)C4OCC3(C(=O)O)OC4OC3C(COS(=O)(=O)O)OC(OC)C(OS(=O)(=O)O)C3OC)C(OS(=O)(=O)O)C2OS(=O)(=O)O)C(OC)C(OC)C1OC1OC(COS(=O)(=O)O)C(OC)C(OC)C1OC` (centres unmarked) [Compound PA01], the half-life in data set [1] (female, Wistar Han, rat, read-out: T1/2 (Rat), half-life of elimination (converted)) was 3.5 ± 0.3 h. In addition, in data set [2], the IC50 came out at 34 nM.

As to `CO[C@H]1O[C@H](COS(=O)(=O)O)[C@@H](O[C@@H]2O[C@@H](C(=O)O)[C@@H](O[C@H]3O[C@H](COS(=O)(=O)O)[C@@H](O[C@@H]4O[C@H](C(=O)O)[C@@H](O[C@H]5O[C@H](COS(=O)(=O)O)[C@@H](O)[C@H](O)[C@H]5NS(=O)(=O)O)[C@H](O)[C@H]4O)[C@H](OS(=O)(=O)O)[C@H]3NS(=O)(=O)O)[C@H](O)[C@H]2OS(=O)(=O)O)[C@H](O)[C@H]1NS(=O)(=O)O` [Fondaparinux sodium], the half-life in human in data set [3] was 17 h.
